Series [1] has as its system Human macrophages (U937). As to the kind of experiment: HSP27 secretion from human macrophages (Western blot of conditioned media). It is filed as cell-based. As to the method:
(§1) Cell lysates were obtained using a RIPA buffer [1% NP-40, 0.5% sodium deoxycholate, 0.1% SDS, Complete™ inhibitor in PBS]. Cells were washed twice with PBS, lysed in RIPA buffer, collected using a cell scraper, and placed on ice for 45 minutes. Cell debris was collected by centrifugation at 15,000×g for 20 minutes, and the supernatant containing the cellular protein was isolated. Protein was quantified using Bradford reagent (Sigma). For western blotting, 50 μg of whole cell protein was loaded onto a 10% SDS-PAGE gel and separated at 120V using gel electrophoresis. Protein was then transferred to a PVDF membrane (BioRad, Hercules, Calif.) for 2 hours at 60V. Membranes were then subjected to western blotting using the following antibodies: anti-HSP27 (Santa Cruz, 1:200); anti-SR-A (Chemicon, 1:2000); anti-IL-1β (R&D, 1:500); anti-IL-10 (Santa Cruz, 1:200).
Human macrophages (U937) were plated in replicates at a density of […] per well and treated with estradiol or acLDL. […] Macrophages were subjected to increasing concentrations of acLDL (1 to 100 μg/mL) for 24 hours.

The subject of series [2] is aortic endothelial cells. As to the kind of experiment: HSP27 secretion from aortic endothelial cells (Western blot). It is filed as cell-based, human. The conditions noted are these: DPN 1 nM, 24 h. From the text: (§2) HSP27 was detected in the extracellular space by Western blot.
In series [3] the test system is aortic smooth muscle cells. As to the kind of experiment: HSP27 secretion from aortic smooth muscle cells (Western blot). The note with it: DPN 1 nM, 24 h. It is filed as cell-based, human.
From the text: as §2

In series [4] the test system is macrophages (acLDL uptake via the scavenger receptor A). As to the kind of experiment: Fluorescent acLDL uptake by macrophages. It is filed as cell-based, mouse. As to the method: Cells were treated with Dil-acLDL (5 μg/ml) for 4 hours at 37° C., in the presence of recombinant HSP27 (5 μg/ml) and/or fucoidan (10 μg/ml). Cells were harvested by gentle cell scraping in 100 μl of PBS. Each sample was analyzed for acLDL fluorescence on a BMG PolarStar plate reader (excitation: 510 nm, emission: 570 nm) and normalized to total cell number using the Vi-Cell cell counter (Beckman Coulter, Mississauga, ON).
Foam cell formation is a hallmark process in the development of atherosclerosis, and prevention of lipid uptake by macrophages may serve to reduce overall lesion development and inflammation. If HSP27 can bind the SR-A in vitro, and there is an atheroprotective effect of HSP27 in vivo, HSP27 may prevent the SR-A from taking up atherogenic lipids such as acLDL and becoming foam cells. In support of this, mouse macrophages were cultured in vitro in the presence of fluorescently labeled acLDL for […], and acLDL uptake was measured using a fluorometer and normalized to total cell number.
Extracellular HSP27 inhibits uptake of acLDL by macrophages via the scavenger receptor A. Fluorescently labeled acLDL (5 μg/ml) was given to macrophages in the presence (right columns) or absence (left columns) of recombinant HSP27 (5 μg/ml). […] Fluorescent uptake was measured and normalized to total cell number.

The target in series [5] is T1, scavenger receptor A (SR-A) (Mus musculus, UniProt P30204).
T1 construct: detection of a ˜50 kDa band corresponding to SR-A in these cells; endogenous in cells; host or cells: J774 mouse macrophages (untransfected); mouse peritoneal macrophages
T1 sequence (P30204 1-458): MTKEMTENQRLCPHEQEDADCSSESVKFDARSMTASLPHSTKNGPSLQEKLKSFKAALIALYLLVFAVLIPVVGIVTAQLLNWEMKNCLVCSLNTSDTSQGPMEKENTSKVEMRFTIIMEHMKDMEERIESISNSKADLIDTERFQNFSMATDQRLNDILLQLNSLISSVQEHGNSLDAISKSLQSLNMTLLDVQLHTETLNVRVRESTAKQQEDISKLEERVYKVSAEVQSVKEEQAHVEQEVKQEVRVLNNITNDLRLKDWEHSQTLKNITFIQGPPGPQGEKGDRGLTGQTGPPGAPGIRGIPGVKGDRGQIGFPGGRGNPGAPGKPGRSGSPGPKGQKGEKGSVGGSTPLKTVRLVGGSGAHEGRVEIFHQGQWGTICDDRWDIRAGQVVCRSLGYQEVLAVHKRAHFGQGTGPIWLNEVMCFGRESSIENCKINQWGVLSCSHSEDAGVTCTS
As to the kind of experiment: Immunolabeling of recombinant HSP27 binding to macrophage surface and SR-A. The protocol:
J774 cells treated with recombinant HSP27 (5 μg/ml) with or without fucoidan (10 μg/ml) were fixed with BD Cytofix (BD Biosciences, Mississauga, ON) and blocked with 2% bovine serum albumin (BSA) for 2 hours. Antibodies against human HSP27 (Chemicon, 1:200) and scavenger receptor A (Serotec, 1:200) were incubated overnight at 4° C. Visualization of substrates was done using secondary antibodies conjugated to fluoroscein (for HSP27) and Texas Red (for SR-A). Negative controls included incubation with control IgG and secondary antibody alone.
Cells were grown on cover slips, and transfected as described above. Cells were fixed with BD Cytofix as directed by the manufacturer and mounted with Dako Fluorescent mounting media (Dako Cytomation, Mississauga, ON). Coverslips were visualized with an Olympus FluoView FV1000 confocal microscope (Olympus America Inc, Center Valley, Pa.) at 100× magnification, using sequential scanning to reduce any potential non-specific excitation of the different fluorophores.
Cells were also treated with an SR-A specific competitive ligand (fucoidan, 10 ug/ml) before administration of HSP27 (bottom panel). Co-localization is seen as a yellow colour. […] Macrophages from SR-A null mice were harvested and incubated with recombinant HSP27 (5 μg/ml) for 2 hours at 4° C. Immunolabeling was performed as described above.

Series [6] deals with ApoE−/− mice. As to the kind of experiment: Short term (3 week) rHSP27 treatment of ApoE−/− mice on high fat diet. It is filed as in vivo, mouse. The protocol: ApoE^−/− mice were maintained on a high fat diet and randomized to rHSP27 (100 ug) vs. phosphate buffered saline (PBS) twice a day for 3 weeks.
FIG. 22A depicts the experimental design: ApoE^−/− mice were maintained on a high fat diet and randomized to rHSP27 (100 ug) vs. phosphate buffered saline (PBS) twice a day for 3 weeks. The mice were then euthanized and blood samples were collected. After perfusing with phosphate-buffered saline (PBS) followed by 4% paraformaldehyde (PFA) in PBS via the left ventricle, the heart and aorta were removed and immersed in 4% PFA/PBS at 4° C. overnight. Serum lipoprotein separation was performed by fast-performance liquid chromatography (FPLC) analysis using a Superose 6 column (Pharmacia Biotech Inc., Piscataway, N.J., USA) on an HPLC system model 805 MANOMETRIC MODULE (GILSON). An enzymatic assay kit (Wako Pure Chemical Industries, Ltd, Osaka, Japan) was employed to determine cholesterol level. The content of the aortic atherosclerotic lesions were assessed using quantitative histochemical and immunohistochemical methods. Dark red oil red O staining identifying lipidoid deposits, while Haematoxylin and eosin (H&E) stained denote tissue histopathology.
Hematoxylin and eosin (H&E) stained tissue sections were also labeled for nuclear staining (blue fluorescent Hoechst 33258), apoptosis (green fluorescent TUNEL labeling) and macrophages accumulation (green fluorescent Mac-2).

Series [7] can be described thus: rHSP27 pharmacokinetic experiments (subcutaneous injection). It is filed as in vivo, mouse. The conditions noted are these: 100 μg subcutaneously, male and female ApoE−/− mice; similar to female ApoE−/− HSP27o/e mice. The protocol: These were performed by injecting 100 μg of purified rHSP27 or control BSA (in PBS) subcutaneously into male and female ApoE^−/− mice and then checked serum rHSP27 levels at various times post-injection (n=3-6).

The subject of series [8] is Insulin. As to the kind of experiment: rHSP27 chaperone activity assay (DTT-induced aggregation of insulin). It is filed as biochemical. The note with it: Insulin 40 μM; Insulin:rHSP27 10:1 and 100:1; 43° C.; absorbance at 320 nm. As to the method:
The rHSP27 was produced in E. coli. The rHSP27 so produced is >90% endotoxin free (endotoxin concentration assessed using Limulus Amebocyte Lysate gel-blot Assay: 2-3 EU/mg protein). Based on in vitro chaperone assay experiments, the protein is “functional”. […] The DTT-induced aggregation of insulin was performed in the absence and presence of rHSP27 in PBS solution, pH 7.4, to measure the chaperone activity of rHSP27. Insulin (40 μM) with different concentration of rHSP27 (Insulin: rHSP27=10:1 and 100:1 and no rHSP27) in PBS were incubated for 10 min at 43° C., respectively. Aggregation was monitored by measure the absorbance at 320 nm in Bioteck Synergy Mx spectrophotometer for 30 min at 43° C. after add DTT to a final concentration of 20 mM.

For series [9], the system named is macrophages (IL-1β, IL-10 release). As to the kind of experiment: Cytokine release from acLDL-treated macrophages (western blot of conditioned media). It is filed as cell-based, mouse. The note with it: recombinant HSP27 5 μg/ml, acLDL 5 ug/ml, 30 minutes and 4 hours. As to the method: as §1
Fluorescently labeled acLDL (5 ug/ml) was given to macrophages in the presence or absence of recombinant HSP27 (5 μg/ml). Conditioned media was collected after 30 minutes and 4 hours and subjected to western blotting for IL-1β (FIG. 7A) and IL-10 (FIG. 7B). Addition of HSP27 caused a decrease in the acLDL-induced secretion of IL-1β into the extracellular space.

Entries after “also recorded” stand apart in the source; their conditions may differ.

`N#CC(Cc1ccc(O)cc1)c1ccc(O)cc1` (stereo not shown) [DPN]: the “HSP27 secretion upon stimulation of ERβ” value in [1] (DPN 1 nM, 4 h or 24 h) is listed as “enhanced”. Besides, the “HSP27 secretion from endothelial cells” value in [2] was “increase in HSP27 secretion”. For the same molecule, the “HSP27 secretion from smooth muscle cells” value in [3] is on record as “not smooth muscle cells”.
With `C[C@]12CC[C@@H]3c4ccc(O)cc4CC[C@H]3[C@@H]1CC[C@@H]2O` [E2, 17β-estradiol], the “intracellular HSP27 protein levels” value in series [1] is listed as “increased slightly”. Besides, the “colocalization of HSP27 with lysosome marker LAMP1” value in series [1] (100 nmol/L E2 overnight) was “displayed colocalization of HSP27 (red) and LAMP1”. Further, in series [1] (E2 for 24 hours, compared to controls), the “HSP27 release into the media” value was “dose-dependent increase”. In series [1] (estrogen-induced release over time), the “time of maximum HSP27 secretion” value came out at 24 h.
Consider fucoidan [reference compound], for which, in [4] (fucoidan 10 ug/ml before acLDL or HSP27), the “inhibition of acLDL uptake by macrophages” value is “capable of inhibiting this process”. Also, the “HSP27 binding to SR-A in the presence of competitor” value in [5] (fucoidan 10 ug/ml before HSP27) was “reduced”.
With “rHSP27: recombinant human heat shock protein 27 produced in E. coli, purified, injected subcutaneously”, in series [6] (100 ug BID, 3 weeks), the body weight entry is “did not change”; the “cholesterol levels contained by VLDL and IDL/LDL (FPLC)” value was “reduces cholesterol levels contained by VLDL and IDL/LDL”; the “number of WBC (peripheral blood smears)” value is “did not change”. In series [6] (100 ug BID, 3 weeks, Mac-2), the “reduction in abundance of aortic sinus lesion macrophages” value is “approximately 45%”. The “reduction in abundance of apoptotic macrophages in aortic sinus lesion” value in [6] (100 ug BID, 3 weeks, TUNEL) is reported as roughly 80%. In [6] (100 ug BID, 3 weeks, p=0.002), the “reduction in aortic sinus lesion area” value is recorded as 26%. Besides, in series [6] (100 ug BID, 3 weeks, p=0.01), the “reduction in aortic wall (en face) lesion area” value is reported as 27%. Besides, the liver cholesterol content entry in series [6] (100 ug BID, after the 3rd week) is “without a rise”. The “serum total cholesterol levels lower by” value in [6] (100 ug BID, after the 3rd week, vs PBS) was determined as 41%. Besides, in [6] (mouse, in vivo), the “adverse events when injected in mice” value is listed as “did not cause adverse events” and the “atherogenesis in ApoE−/− mice” value was “efficacious in reducing atherogenesis”. Also, in [7], the “serum rHSP27 level with twice daily injection schedule” value was “effective to maintain a serum level of rHSP27”. The “chaperone activity (in vitro aggregation and refolding assays)” value in series [8] is “functional”.
Take “recombinant HSP27: Recombinant HSP27 was purchased from Stressgen; heat shock protein 27 added extracellularly to macrophages”: the “reduction in acLDL uptake by macrophages” value in [4] (recombinant HSP27 5 μg/ml, fluorescently labeled acLDL 5 μg/ml, normalized to total cell number) is on record as 41%. For the same molecule, in [5] (5 μg/ml, 2 hours at 4° C.), the “HSP27 binding to the cell surface of macrophages from SR-A null mice” value is listed as “completely abolished”. In addition, in series [5] (5 μg/ml, 2 hours at 4° C., confocal microscopy), the “binding to surface of macrophages and co-localization with SR-A” value was “capable of binding the surface of macrophages, and co-localizes with SR-A”. Also, in series [9], the “acLDL-induced secretion of IL-1β” value is “decrease” and the “release of IL-10” value was “increased”. For the same molecule, the “acLDL-induced secretion of IL-1β” value in series [9] (listed as HSP27) is recorded as “considerable decrease; also recorded: reduced”.

Values taken from US8343916B2, “Use of heat-shock protein 27 for cardiovascular disease prevention and treatment” (Ottawa Heart Institute Research Corporation, priority 2007, dated 2013).
